Assays:
IDH1 G97D = molecular target: T1, IDH1 G97D (Homo sapiens, UniProt O75874, G97D); assay: IDH1 G97D inhibition assay (NADPH/aKG, diaphorase/resazurin fluorescence readout); assay type: biochemical; conditions: 50 minutes at room temperature
T1 construct: Oligo nucleotides were designed to PCR out the coding region of IDH1 with NdeI at the 5′ end and XhoI at the 3′; Ser-Leu-Glu junction (stop codon changed to Ser, then Leu-Glu); made in house; host or cells: E. coli Rosetta
Protocol: Assays were conducted in a standard 384-well plate in a reaction volume of 76 uL assay buffer (150 mM NaCl, 10 mM MgCl2, 20 mM Tris pH 7.5, 0.05% bovine serum albumin, 2 mM beta-mercaptoethanol) as follows: To 25 uL of substrate mix (4 uM NADPH, 1 mM aKG), 1 uL of test compound in DMSO was added. The plate was centrifuged briefly, and then 25 ul of enzyme mix was added (0.1 ug/mL ICDH1 G97D) followed by a brief centrifugation and shake at 100 RPM. The reaction was incubated for 50 minutes at room temperature, then 25 ul of detection mix (30 uM resazurin, 36 ug/ml diaphorase) was added, and the mixture further incubated for 5 minutes at room temperature. The activity readout as a result of the conversion of resazurin to resorufin was detected by fluorescent spectroscopy at excitation 544 nm and emission 590 nm (c/o 590 nm).

glioblastoma multiforme = conditions: persons newly diagnosed with glioblastoma multiforme; cited from earlier work

T1 sequence (O75874 whole entry G97D): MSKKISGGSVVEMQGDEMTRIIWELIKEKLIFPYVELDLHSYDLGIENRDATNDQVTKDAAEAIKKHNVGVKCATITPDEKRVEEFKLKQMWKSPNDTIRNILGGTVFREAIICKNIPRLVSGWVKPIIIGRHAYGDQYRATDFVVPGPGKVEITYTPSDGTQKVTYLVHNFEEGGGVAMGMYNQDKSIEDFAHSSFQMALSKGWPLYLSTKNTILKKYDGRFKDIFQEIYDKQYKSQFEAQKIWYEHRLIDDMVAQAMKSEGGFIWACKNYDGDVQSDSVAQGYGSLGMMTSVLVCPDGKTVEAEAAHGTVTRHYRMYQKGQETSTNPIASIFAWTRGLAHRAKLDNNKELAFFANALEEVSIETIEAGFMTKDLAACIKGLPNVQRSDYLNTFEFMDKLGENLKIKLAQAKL

Row | SMILES | IC50 (IDH1 G97D) [µM] | tolerability (glioblastoma multiforme)
1 | O=C1/C(=C/c2ccc(F)cc2)C(CSc2ccc(Cl)cc2)=NN1c1nc2ccccc2s1 | 1 to 5 | –
2 | CCCCC1=NN2C(=N)/C(=C/c3ccc(-c4ccc([NH2+][O-])cc4Cl)o3)C(=O)N=C2S1 | 1 to 5 | –
3 | N#C/C(=C\c1ccc(-c2cc([N+](=O)[O-])ccc2O)o1)c1nc2ccccc2[nH]1 | 1 to 5 | –
4 | Cn1nnc2c(C(N)=O)ncn2c1=O [temozolomide, Temozolomide] | – | well tolerated
5 | O=C1NC(=S)S/C1=C\c1ccc(-c2ccc(N3CCOCC3)c([N+](=O)[O-])c2)o1 | 5 to 10 | –

Reference: US8883438B2, “Method for diagnosing cell proliferation disorders having a neoactive mutation at residue 97 of isocitrate dehydrogenase 1” (Agios Pharmaceuticals, Inc., priority 2009, dated 2014)
